{"source": "patent US20100298141A1", "about": "“SUBSTITUTED PYRIDINE N-OXIDE HERBICIDES” (E. I. DU PONT DE NEMOURS AND COMPANY, priority 2007, published 2010)", "key": {"millet": {"test_system": "millet", "assay": "Test G preemergence test", "type": "in vivo, Panicum miliaceum", "details": "scale 0 to 100"}, "barnyardgrass": {"test_system": "barnyardgrass", "assay": "Test B flooded paddy test", "type": "in vivo, Echinochloa crus-galli", "details": "Flood, 250 g ai/ha, 13 to 15 days; scale 0 to 100, 0 no effect, 100 complete control", "excerpt": "(§1) At time of treatment, test pots were flooded to 3 cm above the soil surface, treated by application of test compounds directly to the paddy water, and then maintained at that water depth for the duration of the test. Treated plants and controls were maintained in a greenhouse for 13 to 15 days, after which time all species were compared to controls and visually evaluated. […] A dash (-) response means no test result."}, "large crabgrass": {"test_system": "large crabgrass", "assay": "Test G preemergence test", "type": "in vivo, Digitaria sanguinalis", "details": "scale 0 to 100"}, "downy bromegrass": {"test_system": "downy bromegrass", "assay": "Test D preemergence test", "type": "in vivo, Bromus tectorum", "details": "scale 0 to 100", "excerpt": "(§2) Seeds of plant species selected from annual bluegrass (Poa annua), blackgrass (Alopecurus myosuroides), downy bromegrass (Bromus tectorum), field violet (Viola arvensis), green foxtail (Setaria viridis), Italian ryegrass (Lolium multiflorum), littleseed canarygrass (Phalaris minor), spring wheat (Triticum aestivum), wild oat (Avena fatua), […]), winter barley (Hordeum vulgare), and winter wheat (Triticum aestivum) were planted and treated preemergence with test chemicals formulated in a non-phytotoxic solvent mixture which included a surfactant. […] A dash (-) response means no test result."}, "sugarcane": {"test_system": "sugarcane", "assay": "Test F pre-/postemergence test", "type": "in vivo, Saccharum officinarum", "details": "for Sugarcane plant response rating: postemergence", "excerpt": "Seeds of plant species selected from bermudagrass (Cynodon dactylon), Surinam grass (Brachiaria decumbens), large crabgrass (Digitaria sanguinalis), green foxtail (Setaria viridis), goosegrass (Eleusine indica), johnsongrass (Sorghum halepense), kochia (Kochia scoparia), pitted morningglory (Ipomoea lacunosa), purple nutsedge (Cyperus rotundus), common ragweed (Ambrosia elation), mustard (Brassica nigra), guineagrass (Panicum maximum), […] (Paspalum dilatatum), barnyardgrass (Echinochloa crus-galli), southern sandbur (Cenchrus echinatus), common sowthistle (Sonchus oleraceous), prickly […] spinosa), Italian ryegrass (Lolium multiflorum), common purslane (Portulaca oleracea), broadleaf signalgrass (Brachiaria platyphylla), common groundsel (Senecio vulgaris), common chickweed (Stellaria media), Virginia dayflower (Commelina virginica), annual bluegrass (Poa annua), naked crabgrass (Digitaria nuda), […] cochinchinensis), quackgrass (Elytrigia repens), Canada horseweed (Conyza canadensis), field bindweed (Convolvulus arvensis), […] (Bidens bipinnata), common mallow (Malva sylvestris), Russian thistle (Salsola kali), and sugarcane (Saccharum officinarum) were planted and treated preemergence with test chemicals formulated in a non-phytotoxic solvent mixture which included a surfactant. At a different time, sugarcane was treated with postemergence applications of some of the test chemicals formulated in the same manner. Plants were approximately 3- to 4-leaf stage for the postemergence treatments. Treated plants and controls were maintained in a greenhouse for 14 to 21 days, after which time all species were compared to controls and visually evaluated. […] A dash (-) response means no test result."}, "itchgrass": {"test_system": "itchgrass", "assay": "Test G preemergence test", "type": "in vivo, Rottboellia cochinchinensis", "details": "scale 0 to 100"}, "winter wheat": {"test_system": "winter wheat", "assay": "Test D preemergence test", "type": "in vivo, Triticum aestivum", "details": "scale 0 to 100", "how_it_was_run": "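Test chemicals, formulated in a surfactant-containing non-phytotoxic solvent mixture, are applied preemergence after the seeds are planted. Entries shown as a dash mean no result was obtained.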"}, "Redstem": {"test_system": "Redstem", "assay": "Test C flooded paddy test", "type": "in vivo", "details": "Flood", "excerpt": "as §1"}, "Ricefield Bulrush": {"test_system": "Ricefield Bulrush", "assay": "Test C flooded paddy test", "type": "in vivo", "details": "Flood", "excerpt": "as §1"}, "green foxtail": {"test_system": "green foxtail", "assay": "Test D preemergence test", "type": "in vivo, Setaria viridis", "details": "scale 0 to 100", "excerpt": "as §2"}, "winter barley": {"test_system": "winter barley", "assay": "Test D preemergence test", "type": "in vivo, Hordeum vulgare", "excerpt": "as §2"}, "[1]": {"details": "250 g ai/ha, scale 0 to 100 (0 no effect, 100 complete control)"}, "[2]": {"details": "250 g ai/ha, preemergence, scale 0 to 100"}, "[3]": {"details": "31 g ai/ha, scale 0 to 100 (0 no effect, 100 complete control)"}, "[4]": {"details": "62 g ai/ha, scale 0 to 100, 0 no effect, 100 complete control, 13 to 15 days"}, "[5]": {"details": "125 g ai/ha, scale 0 to 100, 0 no effect, 100 complete control, 13 to 15 days"}}, "data": [{"molecule": "Cn1nc(C(F)(F)F)c(C[S+]([O-])c2cccc[n+]2[O-])c1OC(F)F", "note": "(centres unmarked) [Compound 3]", "values": [{"measurement": "Plant response rating, Millet", "setting": "millet; 31 g ai/ha", "result": 0}, {"measurement": "Plant response rating, Millet", "setting": "millet; 62 g ai/ha", "result": 0}, {"measurement": "Plant response rating, Millet", "setting": "millet; 125 g ai/ha", "result": 15}, {"measurement": "Plant response rating, Millet", "setting": "millet; 250 g ai/ha", "result": 90}, {"measurement": "Plant response rating, Barnyardgrass", "setting": "barnyardgrass", "result": 60}, {"measurement": "Plant response rating, Crabgrass, Large", "setting": "large crabgrass; 31 g ai/ha", "result": 0}, {"measurement": "Plant response rating, Crabgrass, Large", "setting": "large crabgrass; 62 g ai/ha", "result": 60}, {"measurement": "Plant response rating, Crabgrass, Large", "setting": "large crabgrass; 125 g ai/ha", "result": 100}, {"measurement": "Plant response rating, Crabgrass, Large", "setting": "large crabgrass; 250 g ai/ha", "result": 100}, {"measurement": "Plant response rating, Bromegrass, Downy", "setting": "downy bromegrass; 31 g ai/ha", "result": 0}, {"measurement": "Plant response rating, Bromegrass, Downy", "setting": "downy bromegrass; 62 g ai/ha", "result": 45}, {"measurement": "Plant response rating, Bromegrass, Downy", "setting": "downy bromegrass; 125 g ai/ha", "result": 55}, {"measurement": "Plant response rating, Bromegrass, Downy", "setting": "downy bromegrass; 250 g ai/ha", "result": 55}, {"measurement": "Plant response rating, Sugarcane", "setting": "sugarcane; 62 g ai/ha, Preemergence, scale 0 to 100", "result": 17}, {"measurement": "Sugarcane plant response rating", "setting": "sugarcane; 62 g ai/ha, scale 0 to 100", "result": 32}, {"measurement": "Sugarcane plant response rating", "setting": "sugarcane; [1]", "result": 50}, {"measurement": "Plant response rating, Sugarcane", "setting": "sugarcane; [2]", "result": 50}, {"measurement": "Plant response rating, Itchgrass", "setting": "itchgrass; 31 g ai/ha", "result": 0}, {"measurement": "Plant response rating, Itchgrass", "setting": "itchgrass; 62 g ai/ha", "result": 45}, {"measurement": "Plant response rating, Itchgrass", "setting": "itchgrass; 125 g ai/ha", "result": 60}, {"measurement": "Plant response rating, Itchgrass", "setting": "itchgrass; 250 g ai/ha", "result": 90}, {"measurement": "Plant response rating, Wheat, Winter", "setting": "winter wheat; 31 g ai/ha", "result": 0}, {"measurement": "Plant response rating, Wheat, Winter", "setting": "winter wheat; 62 g ai/ha", "result": 10}, {"measurement": "Plant response rating, Wheat, Winter", "setting": "winter wheat; 125 g ai/ha", "result": 15}, {"measurement": "Plant response rating, Wheat, Winter", "setting": "winter wheat; 250 g ai/ha", "result": 40}, {"measurement": "Plant response rating, Redstem", "setting": "Redstem; [3]", "result": 20}, {"measurement": "Plant response rating, Redstem", "setting": "Redstem; [4]", "result": 40}, {"measurement": "Plant response rating, Redstem", "setting": "Redstem; [5]", "result": 45}, {"measurement": "Plant response rating, Redstem", "setting": "Redstem; [1]", "result": 85}, {"measurement": "Plant response rating, Ricefield Bulrush", "setting": "Ricefield Bulrush; [3]", "result": 55}, {"measurement": "Plant response rating, Ricefield Bulrush", "setting": "Ricefield Bulrush; [4]", "result": 55}, {"measurement": "Plant response rating, Ricefield Bulrush", "setting": "Ricefield Bulrush; [5]", "result": 75}, {"measurement": "Plant response rating, Ricefield Bulrush", "setting": "Ricefield Bulrush; [1]", "result": 80}, {"measurement": "Plant response rating, Foxtail, Green", "setting": "green foxtail; 31 g ai/ha", "result": 0}, {"measurement": "Plant response rating, Foxtail, Green", "setting": "green foxtail; 62 g ai/ha", "result": 35}, {"measurement": "Plant response rating, Foxtail, Green", "setting": "green foxtail; 125 g ai/ha", "result": 60}, {"measurement": "Plant response rating, Foxtail, Green", "setting": "green foxtail; 250 g ai/ha", "result": 100}, {"measurement": "Plant response rating, Barley", "setting": "winter barley; Preemergence, 62 g ai/ha, scale 0 to 100", "result": 0}, {"measurement": "Plant response rating, Barley", "setting": "winter barley; Preemergence, 125 g ai/ha, scale 0 to 100", "result": 0}, {"measurement": "Plant response rating, Barley", "setting": "winter barley; Preemergence, 31 g ai/ha, scale 0 to 100", "result": 0}, {"measurement": "Plant response rating, Barley", "setting": "winter barley; preemergence, 250 g ai/ha, scale 0 (no effect) to 100 (complete control)", "result": 15}]}, {"molecule": "CC(c1c(C(F)(F)F)nn(C)c1OC(F)F)S(=O)(=O)c1cccc[n+]1[O-]", "note": "(centres unmarked) [Compound 5]", "values": [{"measurement": "Plant response rating, Barnyardgrass", "setting": "barnyardgrass", "result": 80}, {"measurement": "Sugarcane plant response rating", "setting": "sugarcane; 62 g ai/ha, scale 0 to 100", "result": 0}, {"measurement": "Sugarcane plant response rating", "setting": "sugarcane; [1]", "result": 7}, {"measurement": "Plant response rating, Sugarcane", "setting": "sugarcane; [2]", "result": 7}, {"measurement": "Plant response rating, Redstem", "setting": "Redstem; [3]", "result": 40}, {"measurement": "Plant response rating, Redstem", "setting": "Redstem; [4]", "result": 80}, {"measurement": "Plant response rating, Redstem", "setting": "Redstem; [5]", "result": 80}, {"measurement": "Plant response rating, Redstem", "setting": "Redstem; [1]", "result": 80}, {"measurement": "Plant response rating, Ricefield Bulrush", "setting": "Ricefield Bulrush; [3]", "result": 0}, {"measurement": "Plant response rating, Ricefield Bulrush", "setting": "Ricefield Bulrush; [4]", "result": 45}, {"measurement": "Plant response rating, Ricefield Bulrush", "setting": "Ricefield Bulrush; [5]", "result": 80}, {"measurement": "Plant response rating, Ricefield Bulrush", "setting": "Ricefield Bulrush; [1]", "result": 85}]}]}
